The values that follow come from patent US20260347319A1, “YAP/TAZ-TEAD ONCOPROTEINS INHIBITORS” (BridGene Biosciences, Inc., priority 2022, published 2026).

pIC50: −log10 of the molar value.

Broadly, the pIC50 is the IC50 on a negative log10 scale, so that one unit is a factor of ten.

This assay relates to TEAD1. The assay is described as follows: MCF-7 TEAD1-luciferase reporter assay (MCF7-TEAD-Luc). Type of assay: cell-based. Conditions: MCF7 cells, overnight; for pIC50: Homo sapiens; for TEAD1-Luc MCF7: Max Inhibition: % of DMSO-treated control. The procedure:
The ability of compounds to inhibit TEAD-dependent transcription was assessed in the MCF7-TEAD-Luc reporter assay (BPS #60618). Cells were seeded at 10,000 cells in 200 μL per well into white wall, clear bottom 96-well plates (Corning #3610) and incubated at 37° C. for 24 hours, then treated with serial diluted compounds overnight, and luciferase signal was measured using the ONE-Step Luciferase Assay System (BPS #60690) using an EnSight Multimode plate reader (PerkinElmer, model #MLDHH34000000, integration time 100 ms) with Kaleido 3.0. software. For data analysis, dose-dependent curves were plotted as “% inhibition” (% of DMSO-treated control wells), and were fitted by four-parametric model in GraphPad Prism to obtain IC50 values.
A general note: In a reporter assay the amount or activity of a reporter protein is the signal.

Regarding `C=CC(=O)N1CCC(/C=C\C(C)(C)c2ccc(C(F)(F)F)cc2)C1` (single isomer, unassigned) [Example 91, (Z)-1-(3-(3-methyl-3-(4-(trifluoromethyl)phenyl)but-1-en-1-yl)pyrrolidin-1-yl)prop-2-en-1-one], the pIC50 was < 6.30 and the “TEAD1-Luc MCF7: Max Inhibition” value was “B (75% > B ≥ 50%)”.

Turning to `C=CC(=O)N1CCC(/C=C/C(C)(C)c2ccc(C(F)(F)F)cc2)C1` (single isomer, unassigned) [Example 92, (E)-1-(3-(3-methyl-3-(4-(trifluoromethyl)phenyl)but-1-en-1-yl)pyrrolidin-1-yl)prop-2-en-1-one], the pIC50 was < 6.30 and the “TEAD1-Luc MCF7: Max Inhibition” value is listed as “B (75% > B ≥ 50%)”.

For `C=CC(=O)N1CC[C@@H](/C=C/Cc2ccc(C(F)(F)F)cc2)C1` (single isomer, unassigned) [Example 93], the pIC50 was 7.00 to 8.00 and the “TEAD1-Luc MCF7: Max Inhibition” value was “B (75% > B ≥ 50%)”.

As to `C=CC(=O)N1CC[C@H](/C=C/Cc2ccc(C(F)(F)F)cc2)C1` (single isomer, unassigned) [Example 94], the pIC50 was 7.00 to 8.00 and the “TEAD1-Luc MCF7: Max Inhibition” value is reported as “B (75% > B ≥ 50%)”.

On to `C=CC(=O)N1CCC2(C=C(c3ccc(C(F)(F)F)cc3)CC2)C1` (single isomer, unassigned) [Example 95, 1-(7-(4-(trifluoromethyl)phenyl)-2-azaspiro[4.4]non-6-en-2-yl)prop-2-en-1-one], for which the pIC50 was 6.30 to 7.00 and the “TEAD1-Luc MCF7: Max Inhibition” value is reported as “B (75% > B ≥ 50%)”.

As to `C=CC(=O)N1CCC2(CC=C(c3ccc(C(F)(F)F)cc3)C2)C1` (single isomer, unassigned) [Example 96, 1-(7-(4-(trifluoromethyl)phenyl)-2-azaspiro[4.4]non-7-en-2-yl) prop-2-en-1-one], the pIC50 is 7.00 to 8.00 and the “TEAD1-Luc MCF7: Max Inhibition” value is “B (75% > B ≥ 50%)”.

On to `C=CC(=O)N1CCC2(C=C(c3ccc(C(F)(F)F)cc3)CO2)C1` (single isomer, unassigned) [Example 97, 1-(3-(4-(trifluoromethyl)phenyl)-1-oxa-7-azaspiro[4.4]non-3-en-7-yl)prop-2-en-1-one], for which the pIC50 was 6.30 to 7.00 and the “TEAD1-Luc MCF7: Max Inhibition” value is “C (50% > C ≥ 2%)”.

Turning to `C=CC(=O)N1CCC2(CC(c3ccc(C(F)(F)F)cc3)=CO2)C1` (single isomer, unassigned) [Example 98, 1-(3-(4-(trifluoromethyl)phenyl)-1-oxa-7-azaspiro[4.4]non-2-en-7-yl)prop-2-en-1-one], the pIC50 was < 6.30 and the “TEAD1-Luc MCF7: Max Inhibition” value is “C (50% > C ≥ 2%)”.

As to `C=CC(=O)N1CC[C@H]([C@@H](O)/C=C/c2ccc(C(F)(F)F)cc2)C1` (single isomer, unassigned) [Example 103], the pIC50 is 6.30 to 7.00 and the “TEAD1-Luc MCF7: Max Inhibition” value is “B (75% > B ≥ 50%)”.

Regarding `C=CC(=O)N1CC[C@H]([C@H](O)/C=C/c2ccc(C(F)(F)F)cc2)C1` (single isomer, unassigned) [Example 104], the pIC50 is 6.30 to 7.00 and the “TEAD1-Luc MCF7: Max Inhibition” value is recorded as “B (75% > B ≥ 50%)”.

Consider `C=CC(=O)N1C[C@H](C)[C@@H](/C=C/c2ccc(C(F)(F)F)cc2)C1` (stereo in doubt) [Example 40, 1-[(3R*,4R*)-3-methyl-4-{2-[4-(trifluoromethyl)phenyl]ethenyl}pyrrolidin-1-yl]prop-2-en-1-one], for which the pIC50 is < 6.30 and the “TEAD1-Luc MCF7: Max Inhibition” value is “A (A ≥ 75%)”.

On to `C=CC(=O)N1CC(C/C=C/c2cc(C(F)(F)F)on2)C1` [Example 2, 1-{3-[(2E)-3-[5-(trifluoromethyl)-1,2-oxazol-3-yl]prop-2-en-1-yl]azetidin-1-yl}prop-2-en-1-one], for which the pIC50 is ≥ 8.00 and the “TEAD1-Luc MCF7: Max Inhibition” value is recorded as “A (A ≥ 75%)”.

For the compound `C=CC(=O)N1CC(/C=C/c2ccc(C(F)(F)F)c(OC)c2)C1` [Example 3, 1-{3-[(E)-2-[3-methoxy-4-(trifluoromethyl)phenyl]ethenyl]azetidin-1-yl}prop-2-en-1-one], the pIC50 is ≥ 8.00 and the “TEAD1-Luc MCF7: Max Inhibition” value was “B (75% > B ≥ 50%)”.

For the compound `C=CC(=O)N1CC(/C=C/c2ccc(C(F)(F)F)c(F)c2)C1` [Example 4, 1-{3-[(E)-2-[3-fluoro-4-(trifluoromethyl)phenyl]ethenyl]azetidin-1-yl}prop-2-en-1-one], the pIC50 is ≥ 8.00 and the “TEAD1-Luc MCF7: Max Inhibition” value is on record as “A (A ≥ 75%)”.

On to `C=CC(=O)N1CCC(/C=C/c2ccc(C(F)(F)F)cc2)CC1` [Example 6], for which the pIC50 is 7.00 to 8.00 and the “TEAD1-Luc MCF7: Max Inhibition” value was “B (75% > B ≥ 50%)”.

Turning to `C=CC(=O)N1CC(F)(/C=C/c2cc(C(F)(F)F)on2)C1` [Example 7, (E)-1-(3-fluoro-3-(2-(5-(trifluoromethyl)isoxazol-3-yl)vinyl)azetidin-1-yl)prop-2-en-1-one], the pIC50 was ≥ 8.00 and the “TEAD1-Luc MCF7: Max Inhibition” value is “A (A ≥ 75%)”.

Consider `C=CC(=O)N1CC(F)(/C=C\c2cc(C(F)(F)F)on2)C1` [Example 8, (Z)-1-(3-fluoro-3-(2-(5-(trifluoromethyl)isoxazol-3-yl)vinyl)azetidin-1-yl)prop-2-en-1-one], for which the pIC50 is ≥ 8.00 and the “TEAD1-Luc MCF7: Max Inhibition” value is “A (A ≥ 75%)”.

Turning to `C=CC(=O)N1CC(C)(/C=C/c2cc(C(F)(F)F)on2)C1` [Example 16, 1-(3-methyl-3-(2-(5-(trifluoromethyl)isoxazol-3-yl)vinyl)azetidin-1-yl)prop-2-en-1-one], the pIC50 was ≥ 8.00 and the “TEAD1-Luc MCF7: Max Inhibition” value is “A (A ≥ 75%)”.

With `C=CC(=O)N1CC(/C=C/c2ccc(C(F)(F)F)cc2)(OC)C1` [Example 17], the pIC50 is ≥ 8.00 and the “TEAD1-Luc MCF7: Max Inhibition” value is given as “B (75% > B ≥ 50%)”.

Take `C=CC(=O)N1CC(C)(/C=C/c2ccc(C(F)(F)F)cc2)C1` [Example 18]: the pIC50 is ≥ 8.00 and the “TEAD1-Luc MCF7: Max Inhibition” value was “A (A ≥ 75%)”.

For `C=CC(=O)N1CC(/C=C/c2ccc(C(F)(F)F)cc2OC)C1` [Example 19, 1-(3-(2-methoxy-4-(trifluoromethyl)styryl)azetidin-1-yl)prop-2-en-1-one], the pIC50 is 7.00 to 8.00 and the “TEAD1-Luc MCF7: Max Inhibition” value is given as “C (50% > C ≥ 2%)”.

As for `C=CC(=O)N1CC2(CC(/C=C/c3ccc(C(F)(F)F)cc3)C2)C1` [Example 20], the pIC50 was 6.30 to 7.00 and the “TEAD1-Luc MCF7: Max Inhibition” value is recorded as “B (75% > B ≥ 50%)”.

With `C=CC(=O)N1CC2(CC(/C=C/c3cc(C(F)(F)F)on3)C2)C1` [Example 22, 1-{6-[(E)-2-[5-(trifluoromethyl)-1,2-oxazol-3-yl]ethenyl]-2-azaspiro[3.3]heptan-2-yl}prop-2-en-1-one], the pIC50 is 7.00 to 8.00 and the “TEAD1-Luc MCF7: Max Inhibition” value is given as “B (75% > B ≥ 50%)”.

Regarding `C=CC(=O)N1CC2(CC(/C=C\c3cc(C(F)(F)F)on3)C2)C1` [Example 23, 1-{6-[(Z)-2-[5-(trifluoromethyl)-1,2-oxazol-3-yl]ethenyl]-2-azaspiro[3.3]heptan-2-yl}prop-2-en-1-one], the pIC50 was 7.00 to 8.00 and the “TEAD1-Luc MCF7: Max Inhibition” value is “B (75% > B ≥ 50%)”.

`C=CC(=O)N1CC2(CCC(/C=C/c3cc(C(F)(F)F)on3)CC2)C1` [Example 24, 1-{7-[(E)-2-[5-(trifluoromethyl)-1,2-oxazol-3-yl]ethenyl]-2-azaspiro[3.5]nonan-2-yl}prop-2-en-1-one]: the pIC50 is < 6.30 and the “TEAD1-Luc MCF7: Max Inhibition” value is given as “C (50% > C ≥ 2%)”.

Turning to `C=CC(=O)N1CC2(CCC(/C=C\c3cc(C(F)(F)F)on3)CC2)C1` [Example 25, 1-{7-[(Z)-2-[5-(trifluoromethyl)-1,2-oxazol-3-yl]ethenyl]-2-azaspiro[3.5]nonan-2-yl}prop-2-en-1-one], the pIC50 is 6.30 to 7.00 and the “TEAD1-Luc MCF7: Max Inhibition” value was “B (75% > B ≥ 50%)”.

Consider `C=CC(=O)N1CC(/C=C\c2cc(C(F)(F)F)on2)C1` [Example 26, 1-{3-[(Z)-2-[5-(trifluoromethyl)-1,2-oxazol-3-yl]ethenyl]azetidin-1-yl}prop-2-en-1-one], for which the pIC50 was 7.00 to 8.00 and the “TEAD1-Luc MCF7: Max Inhibition” value is “B (75% > B ≥ 50%)”.

For the compound `C=CC(=O)N1C[C@@H](CC)[C@H](/C=C\c2ccc(C(F)(F)F)cc2)C1` [Example 31, 1-{3-ethyl-4-[(Z)-2-[4-(trifluoromethyl)phenyl]ethenyl]pyrrolidin-1-yl}prop-2-en-1-one], the pIC50 is 6.30 to 7.00 and the “TEAD1-Luc MCF7: Max Inhibition” value is “A (A ≥ 75%)”.

For `C=CC(=O)N1C[C@@H](CC)[C@H](/C=C/c2ccc(C(F)(F)F)cc2)C1` [Example 32, 1-{3-ethyl-4-[(E)-2-[4-(trifluoromethyl)phenyl]ethenyl]pyrrolidin-1-yl}prop-2-en-1-one], the pIC50 is 6.30 to 7.00 and the “TEAD1-Luc MCF7: Max Inhibition” value was “A (A ≥ 75%)”.

`C=CC(=O)N1CCC(/C=C/c2ccc(C(F)(F)F)cc2)(OC)C1` (stereo not shown) [Example 35, (E)-1-(3-methoxy-3-(4-(trifluoromethyl)styryl)pyrrolidin-1-yl)prop-2-en-1-one]: the pIC50 was 7.00 to 8.00 and the “TEAD1-Luc MCF7: Max Inhibition” value is on record as “A (A ≥ 75%)”.

Turning to `C=CC(=O)N1CC(C#N)(/C=C/c2ccc(C(F)(F)F)cc2)C1` [Example 37], the pIC50 was 7.00 to 8.00 and the “TEAD1-Luc MCF7: Max Inhibition” value is listed as “A (A ≥ 75%)”.

Consider `C=CC(=O)N1CC2(CC=C(c3ccc(C(F)(F)F)cc3)CC2)C1` [Example 46, 1-(7-(4-(trifluoromethyl)phenyl)-2-azaspiro[3.5]non-6-en-2-yl)prop-2-en-1-one], for which the pIC50 was 7.00 to 8.00 and the “TEAD1-Luc MCF7: Max Inhibition” value is “B (75% > B ≥ 50%)”.
